Here are results for eleven molecules from ChEMBL document CHEMBL5465560, “Selectivity Literature for EUbOPEN Chemogenomic Library” (2024).

Molecules are shown by their SMILES.

The target of experiment [1] is T1, Tyrosine-protein kinase receptor TYRO3 (Homo sapiens) (UniProt Q06418).
T1 sequence (whole entry): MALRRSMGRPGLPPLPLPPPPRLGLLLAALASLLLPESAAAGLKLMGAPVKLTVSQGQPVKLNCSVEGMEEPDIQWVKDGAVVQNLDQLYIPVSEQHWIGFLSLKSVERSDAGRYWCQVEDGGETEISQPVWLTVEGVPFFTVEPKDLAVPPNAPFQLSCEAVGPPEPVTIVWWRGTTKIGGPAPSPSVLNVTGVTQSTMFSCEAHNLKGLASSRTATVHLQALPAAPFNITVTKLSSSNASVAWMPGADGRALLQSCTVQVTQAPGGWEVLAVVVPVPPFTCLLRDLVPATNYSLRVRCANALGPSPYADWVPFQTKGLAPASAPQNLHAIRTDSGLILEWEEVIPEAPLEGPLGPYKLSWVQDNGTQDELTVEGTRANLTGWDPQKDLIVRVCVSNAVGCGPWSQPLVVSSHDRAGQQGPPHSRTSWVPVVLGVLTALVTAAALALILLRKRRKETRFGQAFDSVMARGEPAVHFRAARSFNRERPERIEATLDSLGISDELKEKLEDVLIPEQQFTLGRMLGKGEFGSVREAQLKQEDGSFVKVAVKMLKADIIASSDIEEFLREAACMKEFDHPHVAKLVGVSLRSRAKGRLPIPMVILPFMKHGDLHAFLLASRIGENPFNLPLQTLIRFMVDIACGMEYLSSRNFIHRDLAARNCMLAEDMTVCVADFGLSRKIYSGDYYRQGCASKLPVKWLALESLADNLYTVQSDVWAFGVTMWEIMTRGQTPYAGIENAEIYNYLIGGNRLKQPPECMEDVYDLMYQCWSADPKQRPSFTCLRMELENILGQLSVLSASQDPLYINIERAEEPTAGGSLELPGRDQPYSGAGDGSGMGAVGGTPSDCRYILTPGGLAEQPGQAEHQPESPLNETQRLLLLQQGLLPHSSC
The experiment is described as follows: Selectivity interaction (ProQinase) EUB0000171b TYRO3.

In experiment [2] the target is Beta-1 adrenergic receptor (Homo sapiens, UniProt P08588). The experiment can be described thus: Selectivity interaction (GPCR panel (PDSP screen)) EUB0001079a ADRB1. The following applies: at 10 µM.
Beta-1 adrenergic receptor, sequence (P08588 whole entry, looked up): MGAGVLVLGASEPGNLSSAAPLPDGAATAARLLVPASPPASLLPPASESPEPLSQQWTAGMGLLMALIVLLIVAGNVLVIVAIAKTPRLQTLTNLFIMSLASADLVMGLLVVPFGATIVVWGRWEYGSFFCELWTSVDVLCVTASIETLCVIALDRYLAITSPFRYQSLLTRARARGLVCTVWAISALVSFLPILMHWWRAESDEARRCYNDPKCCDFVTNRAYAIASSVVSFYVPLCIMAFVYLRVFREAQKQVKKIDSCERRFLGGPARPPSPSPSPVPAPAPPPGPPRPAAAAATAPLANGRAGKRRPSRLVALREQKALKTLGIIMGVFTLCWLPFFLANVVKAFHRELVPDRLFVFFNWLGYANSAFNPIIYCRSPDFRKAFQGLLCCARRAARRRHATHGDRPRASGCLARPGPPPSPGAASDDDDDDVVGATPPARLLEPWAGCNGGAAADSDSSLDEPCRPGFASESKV
Experiment [3] deals with High affinity nerve growth factor receptor (Homo sapiens, UniProt P04629). The experiment is described as follows: Selectivity interaction (KinomeScan (DiscoverX)) EUB0001079a NTRK1. The conditions noted are these: at 1 µM.
High affinity nerve growth factor receptor, sequence (P04629 33-796 limits assumed): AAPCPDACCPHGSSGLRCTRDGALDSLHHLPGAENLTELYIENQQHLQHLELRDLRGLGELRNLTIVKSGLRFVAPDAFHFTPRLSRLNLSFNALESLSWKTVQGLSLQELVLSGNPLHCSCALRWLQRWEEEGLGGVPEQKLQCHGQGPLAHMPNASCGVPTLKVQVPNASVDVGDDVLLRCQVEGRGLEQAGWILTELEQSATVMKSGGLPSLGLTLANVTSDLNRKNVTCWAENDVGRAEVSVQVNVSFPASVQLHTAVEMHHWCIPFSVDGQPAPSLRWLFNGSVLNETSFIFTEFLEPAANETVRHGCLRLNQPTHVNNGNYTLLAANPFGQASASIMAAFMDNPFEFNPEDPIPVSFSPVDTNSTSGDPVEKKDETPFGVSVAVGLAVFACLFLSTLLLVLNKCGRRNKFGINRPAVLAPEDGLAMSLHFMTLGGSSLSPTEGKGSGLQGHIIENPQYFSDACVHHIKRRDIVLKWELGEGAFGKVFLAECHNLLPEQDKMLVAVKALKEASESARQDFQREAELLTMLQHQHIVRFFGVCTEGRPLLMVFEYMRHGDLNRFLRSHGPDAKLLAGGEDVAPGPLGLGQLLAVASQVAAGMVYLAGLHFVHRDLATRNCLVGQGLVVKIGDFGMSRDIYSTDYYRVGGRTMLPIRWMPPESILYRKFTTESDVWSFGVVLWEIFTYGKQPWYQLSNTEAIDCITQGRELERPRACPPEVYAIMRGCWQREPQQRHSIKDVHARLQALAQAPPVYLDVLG
For experiment [4], the target named is T2, SNF-related serine/threonine-protein kinase (Homo sapiens) (UniProt Q9NRH2).
T2 sequence (whole entry): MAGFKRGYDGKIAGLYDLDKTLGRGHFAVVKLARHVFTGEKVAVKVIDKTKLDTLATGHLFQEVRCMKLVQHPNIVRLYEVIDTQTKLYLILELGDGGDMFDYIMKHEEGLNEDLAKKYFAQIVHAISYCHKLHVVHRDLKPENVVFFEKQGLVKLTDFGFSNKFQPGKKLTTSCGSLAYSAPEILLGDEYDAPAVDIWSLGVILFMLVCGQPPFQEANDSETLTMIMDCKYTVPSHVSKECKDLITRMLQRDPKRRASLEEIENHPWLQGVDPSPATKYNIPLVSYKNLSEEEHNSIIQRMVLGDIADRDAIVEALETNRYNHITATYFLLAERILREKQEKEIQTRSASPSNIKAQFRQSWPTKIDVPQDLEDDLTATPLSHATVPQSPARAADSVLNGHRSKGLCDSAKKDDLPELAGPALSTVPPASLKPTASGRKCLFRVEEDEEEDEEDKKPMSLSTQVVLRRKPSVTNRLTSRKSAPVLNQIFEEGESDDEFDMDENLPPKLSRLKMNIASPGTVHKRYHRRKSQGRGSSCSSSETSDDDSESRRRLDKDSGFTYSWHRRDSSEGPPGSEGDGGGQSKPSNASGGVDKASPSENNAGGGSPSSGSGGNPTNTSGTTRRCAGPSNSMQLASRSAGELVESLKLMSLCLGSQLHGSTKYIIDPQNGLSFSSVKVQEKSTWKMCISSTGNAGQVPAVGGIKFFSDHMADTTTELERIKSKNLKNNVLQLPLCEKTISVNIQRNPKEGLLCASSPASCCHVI
The experiment is described as follows: Selectivity interaction (KinomeScan (DiscoverX)) EUB0001049a SNRK. The conditions noted are these: at 1 µM.

The target of experiment [5] is Sodium-dependent noradrenaline transporter (Homo sapiens, UniProt P23975). The experiment is described as follows: Selectivity interaction (Panel of kinases, GPCRs, ion channels and transporters (enzymatic assay)) EUB0000223bCl SLC6A2.
Sodium-dependent noradrenaline transporter, sequence (P23975 whole entry): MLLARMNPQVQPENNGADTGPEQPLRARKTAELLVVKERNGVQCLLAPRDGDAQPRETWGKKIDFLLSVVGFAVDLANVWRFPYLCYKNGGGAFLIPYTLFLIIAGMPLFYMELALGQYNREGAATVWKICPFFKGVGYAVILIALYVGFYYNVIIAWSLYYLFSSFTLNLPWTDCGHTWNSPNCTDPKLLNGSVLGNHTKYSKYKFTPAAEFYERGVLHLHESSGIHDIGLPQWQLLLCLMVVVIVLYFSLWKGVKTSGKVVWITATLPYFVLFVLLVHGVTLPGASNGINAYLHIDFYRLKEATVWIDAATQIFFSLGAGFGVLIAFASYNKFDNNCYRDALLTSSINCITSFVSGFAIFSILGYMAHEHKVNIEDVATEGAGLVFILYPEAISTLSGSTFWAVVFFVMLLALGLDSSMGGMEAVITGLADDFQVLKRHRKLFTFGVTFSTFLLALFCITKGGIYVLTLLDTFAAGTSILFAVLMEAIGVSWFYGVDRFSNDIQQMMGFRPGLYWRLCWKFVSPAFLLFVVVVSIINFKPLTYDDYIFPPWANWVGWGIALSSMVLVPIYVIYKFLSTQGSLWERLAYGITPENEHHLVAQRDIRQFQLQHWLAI
Experiment [6] addresses Mitogen-activated protein kinase 14 (Homo sapiens, UniProt Q16539). The experiment can be described thus: Selectivity interaction (KinomeScan (DiscoverX)) EUB0000695a MAPK14. The following applies: at 100 nM.
For experiment [7], the target named is Serine/threonine-protein kinase MARK2 (Homo sapiens) (UniProt Q7KZI7). The experiment is described as follows: Selectivity interaction (Kinase screening (Nanosyn)) EUB0000604a MARK2.
Serine/threonine-protein kinase MARK2 (Homo sapiens), sequence (Q7KZI7 whole entry): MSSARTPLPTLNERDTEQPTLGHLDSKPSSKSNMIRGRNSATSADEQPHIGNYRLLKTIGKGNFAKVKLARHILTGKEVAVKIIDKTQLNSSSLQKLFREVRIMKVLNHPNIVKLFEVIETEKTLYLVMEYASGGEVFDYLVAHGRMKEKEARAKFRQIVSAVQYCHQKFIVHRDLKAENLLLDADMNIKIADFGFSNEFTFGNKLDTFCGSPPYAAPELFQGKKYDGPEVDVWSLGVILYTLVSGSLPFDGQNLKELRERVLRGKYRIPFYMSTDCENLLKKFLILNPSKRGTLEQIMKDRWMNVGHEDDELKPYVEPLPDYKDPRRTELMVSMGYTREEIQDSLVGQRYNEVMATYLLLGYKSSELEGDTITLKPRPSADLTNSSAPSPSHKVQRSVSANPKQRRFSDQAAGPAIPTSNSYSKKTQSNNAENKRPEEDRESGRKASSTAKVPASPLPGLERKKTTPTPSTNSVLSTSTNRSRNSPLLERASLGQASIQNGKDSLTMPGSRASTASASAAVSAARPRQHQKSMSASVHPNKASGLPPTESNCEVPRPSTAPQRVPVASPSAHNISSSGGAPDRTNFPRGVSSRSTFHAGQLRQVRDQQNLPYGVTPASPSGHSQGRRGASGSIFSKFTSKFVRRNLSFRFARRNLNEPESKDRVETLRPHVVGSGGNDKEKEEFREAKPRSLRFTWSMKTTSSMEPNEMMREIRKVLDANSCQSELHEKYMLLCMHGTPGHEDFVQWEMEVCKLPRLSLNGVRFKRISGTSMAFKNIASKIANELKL
Experiment [8] concerns the target Tyrosine-protein kinase Fyn (Homo sapiens) (UniProt P06241). The experiment is described as follows: Selectivity interaction (KinomeScan (DiscoverX)) EUB0000045b FYN.
Experiment [9] deals with Mitogen-activated protein kinase kinase kinase kinase 5 (Homo sapiens) (UniProt Q9Y4K4). The experiment is described as follows: Selectivity interaction (KinomeScan (DiscoverX)) EUB0000666a MAP4K5. The conditions noted are these: at 10 µM.
Mitogen-activated protein kinase kinase kinase kinase 5 (Homo sapiens), sequence (Q9Y4K4 whole entry, looked up): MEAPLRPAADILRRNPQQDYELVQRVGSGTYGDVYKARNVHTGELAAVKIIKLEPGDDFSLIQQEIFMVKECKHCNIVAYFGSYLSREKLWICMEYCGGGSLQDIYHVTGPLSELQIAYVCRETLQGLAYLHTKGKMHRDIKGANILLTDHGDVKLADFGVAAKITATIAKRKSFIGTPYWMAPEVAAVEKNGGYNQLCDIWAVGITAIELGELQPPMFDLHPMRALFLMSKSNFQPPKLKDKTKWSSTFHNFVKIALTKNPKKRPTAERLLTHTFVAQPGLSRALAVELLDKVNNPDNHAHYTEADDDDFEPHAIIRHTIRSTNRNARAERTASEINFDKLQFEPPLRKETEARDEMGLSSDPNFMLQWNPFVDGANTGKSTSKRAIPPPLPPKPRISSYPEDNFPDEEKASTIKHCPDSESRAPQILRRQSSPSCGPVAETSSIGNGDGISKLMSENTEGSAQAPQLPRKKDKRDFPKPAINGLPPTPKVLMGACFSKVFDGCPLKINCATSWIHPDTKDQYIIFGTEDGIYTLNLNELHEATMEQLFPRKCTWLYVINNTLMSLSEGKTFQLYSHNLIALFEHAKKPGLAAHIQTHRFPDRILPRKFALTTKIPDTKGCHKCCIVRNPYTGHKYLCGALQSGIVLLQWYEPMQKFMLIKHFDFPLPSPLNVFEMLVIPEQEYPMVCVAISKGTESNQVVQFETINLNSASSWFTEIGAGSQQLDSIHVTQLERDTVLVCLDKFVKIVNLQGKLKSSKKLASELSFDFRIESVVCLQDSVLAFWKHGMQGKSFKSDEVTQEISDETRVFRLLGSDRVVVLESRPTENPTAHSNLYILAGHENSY
The target in experiment [10] is Insulin receptor-related protein (Homo sapiens) (UniProt P14616). The experiment is described as follows: Selectivity interaction (SelectScreen profiling (Invitrogen)) EUB0000607a INSRR. The conditions noted are these: at 2 µM.
Experiment [11] has as its target T3, Aurora kinase A (Homo sapiens) (UniProt O14965).
T3 sequence (whole entry): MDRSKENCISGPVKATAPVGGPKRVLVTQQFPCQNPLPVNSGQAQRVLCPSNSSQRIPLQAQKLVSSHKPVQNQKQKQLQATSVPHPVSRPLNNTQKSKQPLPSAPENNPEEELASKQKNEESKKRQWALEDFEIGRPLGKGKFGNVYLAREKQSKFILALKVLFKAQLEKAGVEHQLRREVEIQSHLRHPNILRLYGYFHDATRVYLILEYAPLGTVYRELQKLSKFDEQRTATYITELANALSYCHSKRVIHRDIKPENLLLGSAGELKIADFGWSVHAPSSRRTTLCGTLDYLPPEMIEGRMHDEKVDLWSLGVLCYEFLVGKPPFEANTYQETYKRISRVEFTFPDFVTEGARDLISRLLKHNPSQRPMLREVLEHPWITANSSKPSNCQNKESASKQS
The experiment is described as follows: Selectivity interaction (ActivX KiNativ screen (kinase selectivity in THP-1 cell lysates)) EUB0000639a STK6. It counts as subcellular. The conditions noted are these: lysate, at 5 µM.

Experiment [12] has as its target Serine/threonine-protein kinase MARK2 (Homo sapiens) (UniProt Q7KZI7). The experiment is described as follows: Selectivity interaction (KinomeScan (DiscoverX)) EUB0000229b MARK2. The conditions noted are these: at 10 µM.

Tyrosine-protein kinase Fyn (Homo sapiens), sequence (P06241 2-537 limits assumed): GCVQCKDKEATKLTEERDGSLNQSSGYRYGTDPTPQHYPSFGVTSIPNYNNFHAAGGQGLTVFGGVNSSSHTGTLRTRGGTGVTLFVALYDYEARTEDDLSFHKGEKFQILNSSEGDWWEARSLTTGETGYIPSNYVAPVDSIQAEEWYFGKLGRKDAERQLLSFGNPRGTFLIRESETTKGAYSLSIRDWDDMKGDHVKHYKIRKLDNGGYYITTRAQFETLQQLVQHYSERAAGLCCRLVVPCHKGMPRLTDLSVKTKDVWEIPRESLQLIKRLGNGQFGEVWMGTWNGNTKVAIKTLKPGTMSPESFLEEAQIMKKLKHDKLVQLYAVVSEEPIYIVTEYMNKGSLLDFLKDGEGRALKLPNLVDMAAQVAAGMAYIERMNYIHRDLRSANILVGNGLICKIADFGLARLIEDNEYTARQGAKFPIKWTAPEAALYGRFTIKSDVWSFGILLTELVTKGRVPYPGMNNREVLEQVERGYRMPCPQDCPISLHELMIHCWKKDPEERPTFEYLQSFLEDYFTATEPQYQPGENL
Mitogen-activated protein kinase 14, sequence (Q16539 whole entry): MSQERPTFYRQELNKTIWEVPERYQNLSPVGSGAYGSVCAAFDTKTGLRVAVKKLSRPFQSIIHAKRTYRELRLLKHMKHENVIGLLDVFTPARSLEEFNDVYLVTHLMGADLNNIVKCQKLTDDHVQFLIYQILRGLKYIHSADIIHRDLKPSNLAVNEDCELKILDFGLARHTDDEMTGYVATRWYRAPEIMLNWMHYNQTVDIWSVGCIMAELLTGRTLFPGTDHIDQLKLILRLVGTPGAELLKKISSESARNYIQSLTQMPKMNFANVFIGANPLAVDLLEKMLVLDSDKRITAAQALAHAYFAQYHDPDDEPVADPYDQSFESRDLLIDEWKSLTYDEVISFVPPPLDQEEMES

Consider `C=CC(=O)Nc1cccc(C(=O)Nc2ccc(Nc3cc(-c4[nH]c(SC)nc4C)ccn3)cc2)c1`, for which the % of control in [1] (at 1 µM) was found to be 100%; in [1] (at 5 µM), 86%.
For the molecule `Nc1cnc(N2CCc3cc(S(=O)(=O)Nc4c(F)cc(Cl)cc4F)cc(N4CCCC4=O)c32)nc1` [TP-020n], the % of inhibition in [2] was found to be 8.84%. This molecule also had a % of control in experiment [3] of 100%.
The molecule `COc1cc(Nc2nc(C)cc(-c3cnn4nc(OC)ccc34)n2)cc(C(F)(F)F)c1` displayed a % of control in experiment [4] of 100%.
In [5], `COc1cc(C(=O)N2CC[C@@H](O)[C@@H](N)C2)cc2nc(-c3cc4ccccc4n3CC3CC3)n(C)c12` came in with a pXC50 of 4.7 M.
The molecule `Cc1cc(F)c(C(=O)Nc2cccc(-c3nncn3C(C)C)n2)cc1-n1cnc(C2CC2)c1` returned a % of control in experiment [6] of 100%.
In experiment [7], `Cc1cnc(Nc2ccc(F)cc2Cl)nc1-c1c[nH]c(C(=O)N[C@H](CO)c2cccc(Cl)c2)c1` had a % of inhibition of 5%.
Consider `C=CC(=O)Nc1cc(-n2c(=O)ccc3cnc4ccc(-c5ccc(NS(C)(=O)=O)cc5)cc4c32)ccc1C`, for which the % of control in [8] (at 1 µM) stood at 100%; in [8] (at 10 µM) it was 98%.
Consider `O=C(NOC[C@H](O)CO)c1ccc(F)c(F)c1Nc1ccc(I)cc1F`, for which the % of control in [9] came out at 69%.
As for `CNC(=O)Nc1ccc(-c2nc(N3CC4CCC(C3)O4)c3cnn(C4CCC5(CC4)OCCO5)c3n2)cc1`, the % of inhibition in experiment [10] was 6%.
In experiment [11], `CC[C@@H]1[C@H](F)C(=O)N[C@@H]1COc1nccc2cc(C(N)=O)c(OC)cc12` [ZIMLOVISERTIB] returned a % of inhibition of 64.4%.
`COc1cc(N(C)c2ccnc3ccc(C(F)(F)F)cc23)cc(OC)c1OC` had a % binding in experiment [12] of 85%.
